Laboratory results published in patent publication US20210348119A1, “COMPOSITIONS AND METHODS FOR CELL CULTURE” (The United States of America as Represented By The …, priority 2018, published 2021).
Like-named read-outs stand apart in the source and are kept apart here.

Tests used:
H9 cells [1] = experiment: Survival and attachment of single-cell dissociated cells (CellTiter-Glo, time-lapse imaging); type: cell-based, human; settings: 50 nM Chroman 1, 5 μM Emricasan; vitronectin-coated plates, over 24 hours
Procedure: CellTiter-Glo® assay was used to quantify viable […] cells 24 hours post-plating (100,000 cells/[…]). […] Cellular stress was already apparent 20 minutes after plating in the presence of Emricasan, which ultimately led to dead cells at 24 hours.

H9 cells [2] = experiment: Embryoid body formation assays; settings: AggreWell plates, 24 hours after seeding
Procedure: In one series of experiments, H9 cells were dissociated with Accutase. […] Embryoid body (EB) formation was examined 24 hours after cell seeding.
In a different experimental approach (data not shown), a defined number of H9 cells was plated into AggreWell™ plates (StemCell Technologies, Vancouver, Canada) to generate single EBs per well. Embryoid body (EB) formation was examined 24 hours after cell seeding.
Pluripotent stem cells (WA09, also called H9 cells, obtained from WiCell, Madison, Wis.) dissociated with Accutase were seeded into AggreWell™ plates (StemCell Technologies, Vancouver, Canada) to generate EBs. Bright field images were taken 24 hours after seeding.
H9 cells dissociated with Accutase were seeded into 96-well plates (ultra-low attachment) to generated EBs. After 24 hours, calcein (green staining, live cells) and PI (red staining, dead cells) were added to the cell culture medium to visualize live and dead cells in the wells.

H9 cells [3] = experiment: qHTS for survival of dissociated H9 cells (CellTiter-Glo, 24 hours after seeding); type: cell-based, human; settings: Homo sapiens; for AC50: CellTiter-Glo 24 hours after seeding, read-out: AC50 (concentration at 50% efficacy)
Description: FIG. 2 schematically illustrates qHTS procedure.
All the screed compounds were received pre-plated at the pre-determined concentrations. […] Curve classification is explained in Huang et al. “Chemical genomics profiling of environmental chemical modulation of human nuclear receptors” Environ. Health. Perspect.

human kinases = experiment: Kinase profiling, HotSpot Kinase Assay; type: biochemical; settings: Y-27632 at 10 μM, Chroman 1 at 50 nM; for specificity / off-target inhibition: under 10% of original activity deemed significant
Description: The results of kinase profiling experiments are illustrated in FIG. 8. […] The phylogenic trees of human kinases were generated based on a neighbor-joining tree via ClustalW software derived from multiple protein sequence alignment of human kinase domains (Manning et al., “The protein kinase complement of the human genome” Science 298:1912-1934 (2002)).

H9 cells [4] = experiment: Dose-response curves of selected ROCK inhibitors, cell survival (CTG); type: cell-based, human; settings: four replicates, normalized to CTG reading at 10 μM Y-27632
Description: Molar concentrations of the selected ROCK inhibitors are plotted on the X-axis (log scale). […] Thusly normalized data were plotted on the Y-axis.

ROCK1 = molecular target: T1, ROCK1 (Homo sapiens, UniProt Q13464); experiment: HotSpot Kinase Assay (Reaction Biology) ROCK1; type: biochemical
T1 construct: purchased Reaction Biology Corporation (Malvern, Pa.)
T1 sequence (Q13464 whole entry): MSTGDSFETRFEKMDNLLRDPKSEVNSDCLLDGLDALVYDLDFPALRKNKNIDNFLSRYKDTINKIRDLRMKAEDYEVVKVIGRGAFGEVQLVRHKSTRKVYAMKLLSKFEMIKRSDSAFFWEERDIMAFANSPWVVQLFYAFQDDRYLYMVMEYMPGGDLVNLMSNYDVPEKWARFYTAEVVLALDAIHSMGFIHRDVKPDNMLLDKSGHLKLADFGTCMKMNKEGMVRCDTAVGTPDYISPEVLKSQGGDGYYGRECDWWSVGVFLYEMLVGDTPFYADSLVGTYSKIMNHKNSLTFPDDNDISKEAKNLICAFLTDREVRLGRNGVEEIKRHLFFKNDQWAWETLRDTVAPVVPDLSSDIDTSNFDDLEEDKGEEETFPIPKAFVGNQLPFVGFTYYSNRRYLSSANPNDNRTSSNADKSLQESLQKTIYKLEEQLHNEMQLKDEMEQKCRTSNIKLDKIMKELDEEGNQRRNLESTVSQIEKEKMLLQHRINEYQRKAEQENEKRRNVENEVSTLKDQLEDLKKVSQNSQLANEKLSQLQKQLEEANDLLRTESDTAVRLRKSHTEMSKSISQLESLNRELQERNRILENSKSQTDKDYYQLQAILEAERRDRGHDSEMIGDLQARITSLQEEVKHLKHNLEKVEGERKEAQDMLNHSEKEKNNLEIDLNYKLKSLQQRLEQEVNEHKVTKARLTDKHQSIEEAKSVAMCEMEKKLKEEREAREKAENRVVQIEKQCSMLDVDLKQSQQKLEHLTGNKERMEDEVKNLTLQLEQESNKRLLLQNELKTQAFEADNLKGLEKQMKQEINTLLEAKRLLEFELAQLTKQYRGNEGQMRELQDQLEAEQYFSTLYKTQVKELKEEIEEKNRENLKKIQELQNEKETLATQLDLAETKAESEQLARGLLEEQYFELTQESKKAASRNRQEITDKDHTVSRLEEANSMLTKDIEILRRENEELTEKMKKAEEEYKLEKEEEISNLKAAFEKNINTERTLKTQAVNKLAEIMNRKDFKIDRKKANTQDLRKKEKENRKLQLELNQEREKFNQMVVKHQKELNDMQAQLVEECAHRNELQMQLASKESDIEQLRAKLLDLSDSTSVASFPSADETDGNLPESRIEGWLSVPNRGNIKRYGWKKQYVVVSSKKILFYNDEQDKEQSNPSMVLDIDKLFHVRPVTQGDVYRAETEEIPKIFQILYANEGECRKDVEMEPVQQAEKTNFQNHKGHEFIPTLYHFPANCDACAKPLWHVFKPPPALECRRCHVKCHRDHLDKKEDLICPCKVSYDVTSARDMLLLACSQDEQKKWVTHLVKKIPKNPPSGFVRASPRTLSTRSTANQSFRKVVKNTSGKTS

H9 cells [5] = experiment: Long-term passaging of H9 cells (40 passages); type: cell-based, human; settings: 24 hours treatment at every passage
H9 cells [6] = experiment: Cell survival after routine passage (caspase 3/7 imaging, CTG); type: cell-based, human; settings: 100,000 cells per cm^2; 10 μM Y-27632, 50 nM Chroman 1, 5 μM Emricasan
H9 cells [7] = experiment: Combinatorial matrix screening for synergistic effects on cell survival; type: cell-based, human; settings: 10×10 matrix, normalized to 10 μM Y-27632
Procedure: Combinatorial matrix screening was performed to identify the compounds with synergistic effects on cell survival. Focusing on the compounds with different mechanisms of action, 29 compounds were selected for combinational matrix screening, resulting in 812 sets of 10×10 checkerboard matrix experiments (data not shown), four of which are illustrated in FIG. 9. The concentrations of the compounds for combinational matrix screening were optimized based on the slope and potency (AC50) derived from single-agent qHTS dose-response curves, so that the matrix screen covered a wide range of biological effect observed in the cell viability assay. […] The numerals in each 10×10 matrix show the maximum survival achieved with the indicated combinations or single agents. The maximum survival achieved by each pair of compounds is represented by the highest numbers in each 10×10 matrix, the examples of which are shown in FIG. 9. The bottom matrices depict the synergy matrix calculated using highest-single agent (HSA) model. The HSA synergy assesses the pro-survival benefit of compound combination compared to single agent alone, which was computed as the difference between cell survival out of combination and that from the best single agent at each tested concentration. Synergy is defined as the difference between the combination and max response with single agent (synergy=combination max (single agent A, single agent B).

H9 cells [8] = experiment: Propidium iodide dead cell count of dissociated H9 cells; type: cell-based, human; settings: 10 μM Y-27632 vs 50 nM Chroman 1; 12 hours after plating; EDTA or Accutase dissociation
Procedure: H9 cells were dissociated with 0.5 mM ethylenediaminetetraacetic acid (EDTA) or Accutase (enzymatic dissociation) according to standard procedures and seeded into vitronectin coated 6-well plates. Phase-contrast and fluorescence microscopy digital images were taken 12 hours after cell plating (data not shown). To generate the fluorescence microscopy images, live cells were stained with Calcein (0.5 μg/ML; Thermo Fisher Scientific, catalog number: C34852), and dead cells were stained with propidium iodide (PI; 500 nM; Thermo Fisher Scientific, catalog number: P3566). For quantitative analysis, the cells were counted using an automated cell counter (Cellometer Auto 2000, Nexcelom). The results of PI staining are illustrated in the bar graph shown in the right panel of FIG. 5.

OCT4 expressing cells = experiment: Microscopy of stress mechanisms during cell passaging; type: cell-based; settings: 3 hours post-plating
Procedure: The scale bars shown are 10 μm. Upper panel illustrates confocal microscopic analysis of the lamin B1-GFP iPSC reporter line (Allen Insitute for Cell Science, Seattle, Wash.) displaying dramatic morphological differences in nuclear shape during cell passaging (30 min after plating). […] Lower panel illustrates dramatic cytoskeletal differences during cell passaging (3 hours post-plating), as measured by immunocytochemistry against actin and myosin.

hESCs (H9) = experiment: Western blot of hESCs after passaging; type: cell-based, human; settings: 3 hours post-passage
Description: GAPDH was used as a loading control and house-keeping protein control.
Higher observed levels of phosphorylated CHK2 on threonine 68 indicated cell cycle arrest.

H9 cells [9] = experiment: Colony formation at 25 cells/cm2; type: cell-based, human
Procedure: The experiments were performed validating the “hits” obtained from the primary screening. Pluripotent stem cells (H9 cells obtained from WiCell) were dissociated using TrypLE (Thermo-Fisher) and seeded into 6-well plates at a density of 25 cells/cm′.
Whole-well images (6-well plate) were captured with calcein green (0.5 μg/mL; Thermo Fisher Scientific, catalog number: C34852).
Systematic comparison of small molecule combinations and their effect on colony number and colony size of hESCs plated on vitronectin at 25 cells/cm^2 in StemFlex medium was performed. The quantification of the colony formation rate and median colony size was performed 6 days after plating.

H9 cells [10] = experiment: Low seeding density screen for synergy with Chroman 1 and Emricasan; type: cell-based, human; settings: validation of qHTS hits
Procedure: To extend and maximize the use of Chroman 1 and Emricasan for low cell seeding density conditions and single cell cloning, we developed another combinatorial screening strategy. Experimental studies were performed that identified Trans-ISRIB and polyamines as additional cell survival-promoting factors. An assay was developed to screen for compounds that are capable of overcoming cellular stress associated with low cell seeding density. The experiments aimed to define the detection limit and signal strength of the CTG assay in order to detect single cells per well. H9 cells (obtained from WiCell) were used.
Dissociated stem cells were plated onto vitronectin-coated 1536-well plates at the per-well densities indicated on the X-axis. All the plates were prepared in duplicates. One set of plates was read with CTG right after dispensing (r1), and the other set was read 24 hours after (r2). The CTG fold change plotted on Y-axis was calculated as the ratio of r2 to r1 (r2/r1) to reflect cell survival and growth within 24 hours. […] The middle line within the box is the median cell growth. The upper and lower box hinges represent the 75th and 25th percentiles, whereas the upper and lower whiskers extend from the box hinge to the largest or lowest value no further than 1.5× distance between 25th and 75th percentile.

[11] = H9, 24 h, H9 cell survival normalized to 10 μM Y-27632 (taken to be 100%), read-out: Max (maximum activity value from all tested concentrations)
[12] = H9, 24 h, H9 cell survival, normalized to 10 μM Y-27632, read-out: Efficacy (activity range between predicted activities at zero and infinite doses, Hill equation)

primary targets (human kinases)	SMILES	cell attachment and survival in time-lapse imaging (H9 cells [1])	single EB formation and dead cells (H9 cells [2])	Emax (H9 cells [3]; [11]) [%]	Emax (H9 cells [3]; [12]) [%]	specificity / off-target inhibition (human kinases)	cell survival after single-cell dissociation (H9 cells [6])	further results
ROCK1 and ROCK2	COc1ccc2c(c1)C[C@H](C(=O)Nc1ccc(-c3cn[nH]c3)cc1OCCN(C)C)CO2 [Chroman 1, (3S)—N-{2-[2-(Dimethylamino)ethoxy]-4-(1H-pyrazol-4-yl)phenyl}-6-methoxy-3,4-dihydro-2H-1-benzopyran-3-carboxamide]	cell attachment already 20 min after plating	amount of dead cells was significantly lower	110	108	higher specificity	further improved cell survival	AC50 (H9 cells [3]; H9, 24 h, H9 cell survival): 0.29 µM; potency in dose-response of cell survival (H9 cells [4]): more potent than to Y-27632, Thiazovivin or Fasudil; IC50 against ROCK1 (comparison in words) (ROCK1): more potent ROCK inhibitor than Y-27632; karyotype after long-term passaging (H9 cells [5]): maintained a normal karyotype
–	C[C@H](NC(=O)C(=O)Nc1ccccc1C(C)(C)C)C(=O)N[C@@H](CC(=O)O)C(=O)COc1c(F)c(F)cc(F)c1F [Emricasan, 3-(2-(2-tert-butylphenylaminooxalyl)aminopropionylamino)-4-oxo-5-(2,3,5,6-tetrafluorophenoxy)pentanoic acid]	not sufficient to improve cell viability beyond 24 hours	did not result in proper cell aggregation and EB formation	–	–	–	–	Emax (H9 cells [3]; H9, 24 h, read-out: Efficacy (activity range between predicted activities at zero and infinite doses, Hill equation)): 95.8%; Emax (H9 cells [3]; H9, 24 h, read-out: Max (maximum activity value from all tested concentrations)): 76.4%; AC50 (H9 cells [3]; H9 cell survival): 33.2 µM; synergy with Chroman 1 on cell survival (HSA model) (H9 cells [7]): synergistic with Chroman 1
ROCK1 and ROCK2	C[C@@H](N)[C@H]1CC[C@H](C(=O)Nc2ccncc2)CC1 [Y-27632]	–	Dead cells surrounded the EBs	95.5	96.2	a number of off-targets, including PKCeta (also known as PKC η or PRKCH), PKCepsilon (also known as PKC ε or PRKCE), PKCdelta (also known as PKC δ or PRKCD), PKN1, PKN2 and PRKX	beneficial	number of propidium iodide-positive dead cells (H9 cells [8]): higher number of dead cells than Chroman 1 treatment; cytoskeleton (actin, myosin immunocytochemistry) (OCT4 expressing cells): form prominent actin stress fibers at the colony edge; γH2AX immunoreactivity (OCT4 expressing cells): immunoreactive for γH2AX; phosphorylated eIF2A at serine 51 (hESCs (H9)): High levels of p-eIF2A(S51); stress response markers (γH2AX, ATF4) (hESCs (H9)): Strong stress response
–	O=C(COc1ccc(Cl)cc1)N[C@H]1CC[C@H](NC(=O)COc2ccc(Cl)cc2)CC1 [trans-ISRIB, N,N′-((1r,4r)-cyclohexane-1,4-diyl)bis(2-(4-chlorophenoxy)acetamide)]	–	–	–	–	–	–	cell survival when added to the combination of Chroman 1 and Emricasan (H9 cells [9]): further improved cell survival; cell survival at low density combined with 50 nM Chroman 1 and 5 μM Emricasan (H9 cells [10]): cell survival-promoting effect
